Experiment [1] is described as follows: Inhibition of fMLP-OMe-induced chemotaxis in human neutrophils. The experiment is classed as functional.
The target of a further experiment is T1, fMet-Leu-Phe receptor (Homo sapiens, UniProt P21462).
T1 sequence (P21462 whole entry): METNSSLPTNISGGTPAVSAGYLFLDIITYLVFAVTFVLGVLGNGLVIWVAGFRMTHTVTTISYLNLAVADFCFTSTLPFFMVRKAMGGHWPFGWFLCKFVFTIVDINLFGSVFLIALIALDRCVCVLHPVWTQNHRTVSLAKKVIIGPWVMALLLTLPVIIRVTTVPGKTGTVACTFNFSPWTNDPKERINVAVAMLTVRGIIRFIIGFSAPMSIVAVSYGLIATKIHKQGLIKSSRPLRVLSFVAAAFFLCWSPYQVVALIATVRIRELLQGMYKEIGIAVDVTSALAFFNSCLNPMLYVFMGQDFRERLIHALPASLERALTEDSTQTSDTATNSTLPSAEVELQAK
Description: Displacement of [3H]-fMLP from FPR in human neutrophils. A general note: In a radioligand displacement assay an active substance lowers the binding of a labelled ligand.

In the case of `O=C(c1cnn2c1NC(c1ccccc1)C2)N1CCN(Cc2ccccc2)CC1` (centres undefined), the midpoint of inhibition in experiment [1], the IC50, lay at 0.027 µM. The Ki at fMet-Leu-Phe receptor is greater than 10 µM.
The corresponding values for `O=C(c1cnn2c1NC(c1ccccc1)C2)N1CCCCCC1` (centres undefined) are 0.00101 µM and greater than 10 µM.
With `O=C(c1cnn2c1NC(c1ccccc1)C2)N1CCOCC1` (centres undefined), the IC50 in experiment [1] was found to be 0.3 µM. In addition, the Ki at fMet-Leu-Phe receptor was greater than 10 µM.
Consider `O=C(NCc1ccccc1)c1cnn2c1NC(c1ccccc1)C2` (centres undefined), for which the IC50 in experiment [1] was 10 µM. For the same molecule, on fMet-Leu-Phe receptor, the Ki is greater than 10 µM.
The corresponding values for `CCOC(=O)c1cnn2c1NC(c1ccccc1)C2` (centres undefined) are 2.4 µM and greater than 10 µM.
`O=C(c1cnn2c1NC(c1ccccc1)C2)N1CCCC1` (centres undefined) yielded an IC50 in experiment [1] of 9 µM. The molecule also came in with a Ki on fMet-Leu-Phe receptor greater than 10 µM.
On to `O=C(NC1CC1)c1cnn2c1NC(c1ccccc1)C2` (centres undefined), for which the IC50 in experiment [1] is 0.00048 µM. The Ki at fMet-Leu-Phe receptor was greater than 10 µM.
The corresponding values for `CC(C)(C)NC(=O)c1cnn2c1NC(c1ccccc1)C2` (centres undefined) are 0.00752 µM and greater than 10 µM.
The corresponding values for `c1ccc(C2Cn3nccc3N2)cc1` (centres undefined) are 0.029 µM and greater than 10 µM.
With `O=C(O)c1cnn2c1NC(c1ccccc1)C2` (centres undefined), the IC50 in experiment [1] was 0.00116 µM. The Ki on fMet-Leu-Phe receptor is greater than 10 µM.
In experiment [1], `O=C(c1cnn2c1NC(c1ccccc1)C2)N1CCCCC1` (centres undefined) showed an IC50 of 0.00148 µM. Further, at fMet-Leu-Phe receptor, the Ki is greater than 10 µM.
The corresponding values for `NC(=O)c1cnn2c1NC(c1ccccc1)C2` (centres undefined) are 0.00367 µM and greater than 10 µM.

What is called IC50 is the concentration that gives 50% inhibition. Low values mean greater potency, high ones weaker potency. The Ki is the dissociation constant of the complex between target and ligand, obtained from inhibition or displacement. Read a low Ki as higher affinity.
